Reference: publication PMC12892976, “Alkylation-based optimization of antifungal FPPS inhibitors yields a potent, broad-spectrum lipophilic zoledronate derivative” (mBio, 2025)
Like-named read-outs stand apart in the source and are kept apart here.

Experiments:
Candida glabrata [1] = assay: checkerboard drug interaction (FICI, MICc);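 as to all read-outs here: simplified diagonal checkerboard screen pairing antifungals with FPPS inhibitors, FICI calculated under the Loewe additivity model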; format: cell-based; details: C. glabrata; for INH FD (MIC-MICc fold decrease): fold decrease of inhibitor MIC
Method: (§1) Drug interactions between antifungals and FPPS inhibitors were investigated using a simplified checkerboard diagonal screening method ([45]). […] FICIs were determined according to the Loewe additivity model ([17]).

eight fungal species [2] = assay: checkerboard interaction with azoles, summary across the eight species; format: cell-based; details: geometric mean MIC in combination with azoles
Description: Synergy between lipophilic FPPS inhibitors and azole antifungals was investigated by determining the fractional inhibitory concentration index (FICI) (Fig. 2; Table S1 Fig. S1) ([17]). […]. Derivatives PLA9 and 11, and PDA9, 11, and 12 antagonized azoles in C. albicans, C. neoformans, and C. deuterogattii, yet were largely synergistic in C. glabrata and S. cerevisiae. […].

[3] = system: Cryptococcus deuterogattii; assay: MIC/MFC broth microdilution (CLSI); details: Cryptococcus deuterogattii;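 also: broth microdilution per CLSI M27-Ed4. MFC is the lowest concentration yielding no colonies when MIC broths are subcultured onto SDA plates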
Method: (§2) Antifungal susceptibility was determined by broth microdilution according to the CLSI guidelines described in M27-Ed4 ([16]). […] MFC was determined by back-plating drug-treated cultures from MIC broths onto SDA plates. The MFC was defined as the lowest concentration from which no colonies could be cultured.

Candida albicans [4] = assay: MIC/MFC broth microdilution (CLSI); format: cell-based; details: Candida albicans SC5314
Method: as §2

Candida glabrata [5] = assay: MIC/MFC broth microdilution (CLSI); details: Nakaseomyces glabratus, CBS138;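 also: broth microdilution following CLSI M27-Ed4, MFC taken as the lowest drug level yielding no growth once MIC wells were subcultured on SDA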
Method: as §2

Aspergillus flavus [6] = assay: MIC/MFC broth microdilution (CLSI); details: ATCC204304
Method: as §2

eight fungal species [7] = assay: MIC/MFC summary across the eight fungal species of Table 1; format: cell-based
Method: The antifungal activity of these compounds was evaluated according to CLSI guidelines ([16]).

Cryptococcus neoformans [8] = assay: checkerboard drug interaction (FICI, MICc);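 as to all read-outs here: antifungal plus FPPS inhibitor pairs tested against Cryptococcus neoformans by simplified diagonal checkerboard screening, FICI computed under the Loewe additivity model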; format: cell-based; details: C. neoformans; for INH FD (MIC-MICc fold decrease): fold decrease of inhibitor MIC
Method: as §1

Saccharomyces cerevisiae [9] = assay: checkerboard drug interaction (FICI, MICc); format: cell-based; set-up: INH MICc / INH MICc (ITR:INH) / INH MICc (KET:INH) / INH MICc (FLC:INH): unit not given beside the values;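 also: simplified diagonal checkerboard screen pairing antifungals with FPPS inhibitors, FICI calculated under the Loewe additivity model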
Trichophyton rubrum [10] = assay: checkerboard drug interaction (FICI, MICc);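 also: simplified diagonal checkerboard screen pairing azole antifungals with FPPS inhibitors, FICI calculated under the Loewe additivity model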; format: cell-based; details: T. rubrum
Method: as §1

Candida albicans [11] = assay: checkerboard drug interaction (FICI, MICc);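 as to all read-outs here: antifungal plus FPPS inhibitor combinations on Candida albicans tested by a simplified diagonal checkerboard screen, with FICI calculated under the Loewe additivity model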; format: cell-based; details: C. albicans; for INH FD (MIC-MICc fold decrease): fold decrease of inhibitor MIC
Method: as §1

Aspergillus flavus [12] = assay: checkerboard drug interaction (FICI, MICc);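 also: simplified diagonal checkerboard screen pairing azole antifungals with FPPS inhibitors, FICI calculated under the Loewe additivity model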; format: cell-based; set-up: INH MICc (KET:INH) / INH MICc (FLC:INH): unit not given beside the values; details: A. flavus
Aspergillus fumigatus [13] = assay: checkerboard drug interaction (FICI, MICc); format: cell-based;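 also: simplified diagonal checkerboard screen pairing antifungals with FPPS inhibitors against Aspergillus fumigatus, with FICI calculated under the Loewe additivity model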
Method: as §1

Aspergillus fumigatus [14] = assay: MIC/MFC broth microdilution (CLSI); details: ATCC204305
Method: as §2

Cryptococcus neoformans [15] = assay: MIC/MFC broth microdilution (CLSI); details: Cryptococcus neoformans;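 also: susceptibility testing followed the CLSI M27-Ed4 broth microdilution document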
Method: as §2

[16] = system: Cryptococcus deuterogattii; assay: checkerboard drug interaction (FICI, MICc);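 as to all read-outs here: simplified diagonal checkerboard screen pairing antifungal drugs with FPPS inhibitors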; format: cell-based; details: C. deuterogattii; for INH FD (MIC-MICc fold decrease): fold decrease of inhibitor MIC
Method: as §1

Trichophyton rubrum [17] = assay: MIC/MFC broth microdilution (CLSI); details: Trichophyton rubrum
Method: as §2

HEK-293T cells = assay: MTT reduction cytotoxicity assay; format: cell-based; details: Homo sapiens, HEK-293T, 72 h, HEK-293T, MTT, 72 h; read-out: HEK IC50
Saccharomyces cerevisiae [18] = assay: MIC/MFC broth microdilution (CLSI); format: cell-based; details: Saccharomyces cerevisiae S288c
Method: as §2

[19] = FLC:INH combination, MIC of the inhibitor in combination with FLC
[20] = FLC:INH combination, fold decrease of FLC MIC
[21] = ITR:INH combination, MIC of the inhibitor in combination with ITR
[22] = ITR:INH combination, fold decrease of ITR MIC
[23] = KET:INH combination, MIC of the inhibitor in combination with KET
[24] = KET:INH combination, fold decrease of KET MIC
[25] = Fractional Inhibitory Concentration Index, fluconazole + inhibitor
[26] = Fractional Inhibitory Concentration Index, itraconazole + inhibitor
[27] = Fractional Inhibitory Concentration Index, ketoconazole + inhibitor
[28] = MIC of the inhibitor in combination with fluconazole
[29] = MIC of the inhibitor in combination with itraconazole
[30] = MIC of the inhibitor in combination with ketoconazole
[31] = MIC-MICc fold decrease of fluconazole, negative = increase
[32] = MIC-MICc fold decrease of itraconazole, negative = increase
[33] = MIC-MICc fold decrease of ketoconazole, negative = increase
[34] = MIC-MICc fold decrease of the inhibitor, with fluconazole
[35] = MIC-MICc fold decrease of the inhibitor, with itraconazole
[36] = MIC-MICc fold decrease of the inhibitor, with ketoconazole

CCCCCCCCCN1CCC[C@H]1C(=O)N[C@H](CC(=O)O)C(=O)O [PDA9]
1: INH FD (MIC-MICc fold decrease) (Cryptococcus neoformans [8]; FLC:INH combination) | ITR FD (ITR:INH) (Trichophyton rubrum [10]; [32]) | INH FD (FLC:INH) (Trichophyton rubrum [10]; [34]) | INH FD (ITR:INH) (Trichophyton rubrum [10]; [35]) | FICI (FLC:INH) (Aspergillus flavus [12]; [25]) | FICI (KET:INH) (Aspergillus flavus [12]; [27]) | ITR FD (ITR:INH) (Aspergillus flavus [12]; [32]) | INH MICc (ITR:INH) (Aspergillus fumigatus [13]; [29]) | FLC FD (FLC:INH) (Aspergillus fumigatus [13]; [31]) | KET FD (KET:INH) (Aspergillus fumigatus [13]; [33]) | INH FD (FLC:INH) (Aspergillus fumigatus [13]; [34]) | INH FD (MIC-MICc fold decrease) ([16]; FLC:INH combination) | INH FD (MIC-MICc fold decrease) ([16]; ITR:INH combination) | KET FD (MIC-MICc fold decrease) [16, 24] | INH FD (MIC-MICc fold decrease) ([16]; KET:INH combination)
4: INH MICc (Candida glabrata [1]; [19]) | FLC FD (MIC-MICc fold decrease) (Candida glabrata [1]; [20]) | ITR FD (MIC-MICc fold decrease) (Candida glabrata [1]; [22]) | KET FD (MIC-MICc fold decrease) (Candida glabrata [1]; [24]) | KET FD (KET:INH) (Saccharomyces cerevisiae [9]; [33]) | INH FD (FLC:INH) (Saccharomyces cerevisiae [9]; [34]) | INH FD (KET:INH) (Saccharomyces cerevisiae [9]; [36]) | INH FD (KET:INH) (Trichophyton rubrum [10]; [36]) | INH FD (MIC-MICc fold decrease) (Candida albicans [11]; FLC:INH combination) | INH FD (MIC-MICc fold decrease) (Candida albicans [11]; ITR:INH combination) | INH FD (MIC-MICc fold decrease) (Candida albicans [11]; KET:INH combination) | INH MICc (ITR:INH) (Aspergillus flavus [12]; [29]) | ITR FD (ITR:INH) (Aspergillus fumigatus [13]; [32])
16: INH MICc (ITR:INH) (Saccharomyces cerevisiae [9]; [29]) | INH FD (ITR:INH) (Saccharomyces cerevisiae [9]; [35])
≥4: FICI (Cryptococcus neoformans [8]; FLC:INH combination) | FICI (Cryptococcus neoformans [8]; ITR:INH combination) | FICI (Cryptococcus neoformans [8]; KET:INH combination) | FICI (Candida albicans [11]; FLC:INH combination) | FICI (Candida albicans [11]; ITR:INH combination) | FICI (Candida albicans [11]; KET:INH combination) | FICI ([16]; FLC:INH combination) | FICI ([16]; ITR:INH combination)
128: INH FD (MIC-MICc fold decrease) (Candida glabrata [1]; ITR:INH combination) | INH FD (MIC-MICc fold decrease) (Candida glabrata [1]; KET:INH combination) | INH MICc (Cryptococcus neoformans [8]; [21]) | INH MICc (Cryptococcus neoformans [8]; [23]) | INH MICc (FLC:INH) (Aspergillus flavus [12]; [28]) | INH MICc (KET:INH) (Aspergillus flavus [12]; [30]) | INH MICc (KET:INH) (Aspergillus fumigatus [13]; [30])
-2: ITR FD (ITR:INH) (Saccharomyces cerevisiae [9]; [32]) | FLC FD (FLC:INH) (Trichophyton rubrum [10]; [31])
0.31: FICI (Candida glabrata [1]; FLC:INH combination)
1.02: FICI (ITR:INH) (Aspergillus flavus [12]; [26])
0.28: FICI (Candida glabrata [1]; ITR:INH combination) | FICI (Candida glabrata [1]; KET:INH combination)
0.75: FICI (FLC:INH) (Saccharomyces cerevisiae [9]; [25]) | FICI (KET:INH) (Trichophyton rubrum [10]; [27])
2: INH MICc (Candida glabrata [1]; [21]) | INH MICc (Candida glabrata [1]; [23]) | INH FD (MIC-MICc fold decrease) (Cryptococcus neoformans [8]; ITR:INH combination) | INH FD (MIC-MICc fold decrease) (Cryptococcus neoformans [8]; KET:INH combination) | FLC FD (FLC:INH) (Saccharomyces cerevisiae [9]; [31]) | FICI (ITR:INH) (Trichophyton rubrum [10]; [26]) | KET FD (KET:INH) (Trichophyton rubrum [10]; [33]) | FLC FD (FLC:INH) (Aspergillus flavus [12]; [31]) | KET FD (KET:INH) (Aspergillus flavus [12]; [33]) | INH FD (FLC:INH) (Aspergillus flavus [12]; [34]) | INH FD (KET:INH) (Aspergillus flavus [12]; [36]) | FICI (FLC:INH) (Aspergillus fumigatus [13]; [25]) | INH FD (KET:INH) (Aspergillus fumigatus [13]; [36]) | FICI ([16]; KET:INH combination)
> 256 µg/mL: IC50 (HEK-293T cells)
64: INH FD (MIC-MICc fold decrease) (Candida glabrata [1]; FLC:INH combination) | INH MICc (FLC:INH) (Saccharomyces cerevisiae [9]; [28]) | INH MICc (KET:INH) (Saccharomyces cerevisiae [9]; [30]) | INH MICc (KET:INH) (Trichophyton rubrum [10]; [30]) | INH MICc (Candida albicans [11]; [19]) | INH MICc (Candida albicans [11]; [21]) | INH MICc (Candida albicans [11]; [23]) | INH FD (ITR:INH) (Aspergillus flavus [12]; [35])
0.5: FICI (KET:INH) (Saccharomyces cerevisiae [9]; [27])
52.3: GM fungal MICc (eight fungal species [2])
3: FICI (FLC:INH) (Trichophyton rubrum [10]; [25])
1.5: FICI (KET:INH) (Aspergillus fumigatus [13]; [27])
< -4: FLC FD (MIC-MICc fold decrease) (Cryptococcus neoformans [8]; [20]) | FLC FD (MIC-MICc fold decrease) (Candida albicans [11]; [20]) | ITR FD (MIC-MICc fold decrease) (Candida albicans [11]; [22]) | KET FD (MIC-MICc fold decrease) (Candida albicans [11]; [24]) | ITR FD (MIC-MICc fold decrease) [16, 22]
-4: ITR FD (MIC-MICc fold decrease) (Cryptococcus neoformans [8]; [22]) | KET FD (MIC-MICc fold decrease) (Cryptococcus neoformans [8]; [24]) | FLC FD (MIC-MICc fold decrease) [16, 20]
0.25: FICI (ITR:INH) (Aspergillus fumigatus [13]; [26])
2.06: FICI (ITR:INH) (Saccharomyces cerevisiae [9]; [26])
256: INH MICc (Cryptococcus neoformans [8]; [19]) | INH MICc (FLC:INH) (Trichophyton rubrum [10]; [28]) | INH MICc (ITR:INH) (Trichophyton rubrum [10]; [29]) | INH MICc (FLC:INH) (Aspergillus fumigatus [13]; [28]) | INH FD (ITR:INH) (Aspergillus fumigatus [13]; [35]) | INH MICc [16, 19] | INH MICc [16, 21] | INH MICc [16, 23]
> 128 µg/mL: MFC [3] | MIC [3] | MFC (Candida albicans [4]) | MIC (Candida albicans [4]) | MFC (Candida glabrata [5]) | MIC (Candida glabrata [5]) | MFC (Aspergillus flavus [6]) | MIC (Aspergillus flavus [6]) | MFC (eight fungal species [7]; across eight species, read-out: Geometric mean MFC) | MIC (eight fungal species [7]; geometric mean across eight species, read-out: GM fungal MIC) | MIC (eight fungal species [7]; read-out: Geometric mean MIC) | MFC (Aspergillus fumigatus [14]) | MIC (Aspergillus fumigatus [14]) | MFC (Cryptococcus neoformans [15]) | MIC (Cryptococcus neoformans [15]) | MFC (Trichophyton rubrum [17]) | MIC (Trichophyton rubrum [17]) | MFC (Saccharomyces cerevisiae [18]) | MIC (Saccharomyces cerevisiae [18])
